In brackets after ≈: the same amount, converted by molar mass. Where two headings read alike, the source gives them in different places.
What was measured:
[1] = system: human lymphoblast RPMI 8402 cells; assay: MTT cytotoxicity assay, RPMI 8402; assay type: cell-based; settings: for IC50: Homo sapiens, RPMI 8402, 96 h, read-out: Cytotoxicity IC50, RPMI
Description: (§1) The cytotoxicity was determined using the as MTT-microtiter plate tetrazolinium cytotoxicity assay (MTA) following the procedures of F. Denizot et al., J. Immunol. […] The cytotoxicity assay was performed using 96-well microtiter plates. Cells were grown in suspension at 37° C. in 5% CO2 and maintained by regular passage in RPMI medium supplemented with 10% heat inactivated fetal bovine serum, L-glutamine (2 mM), penicillin (100 U/ml), and streptomycin (0.1 mg/ml). For determination of IC50, cells were exposed continuously with varying concentrations of drug concentrations and MTT assays were performed at the end of the fourth day.

[2] = system: CPT-K5 cells (camptothecin-resistant variant of RPMI 8402); assay: MTT cytotoxicity assay, camptothecin-resistant CPT-K5; assay type: cell-based, human; settings: for IC50: Homo sapiens, CPT-K5, 96 h, read-out: Cytotoxicity IC50, CPT-K5
Description: as §1

[3] = molecular target: T1, calf thymus topoisomerase I (Bos taurus, UniProt A0AAA9TV68); assay: Topoisomerase I-mediated DNA cleavage assay (calf thymus topoisomerase I, plasmid YEpG); assay type: biochemical
T1 construct: plasmid YEpG DNA cleavage assay
T1 sequence (A0AAA9TV68 2-769): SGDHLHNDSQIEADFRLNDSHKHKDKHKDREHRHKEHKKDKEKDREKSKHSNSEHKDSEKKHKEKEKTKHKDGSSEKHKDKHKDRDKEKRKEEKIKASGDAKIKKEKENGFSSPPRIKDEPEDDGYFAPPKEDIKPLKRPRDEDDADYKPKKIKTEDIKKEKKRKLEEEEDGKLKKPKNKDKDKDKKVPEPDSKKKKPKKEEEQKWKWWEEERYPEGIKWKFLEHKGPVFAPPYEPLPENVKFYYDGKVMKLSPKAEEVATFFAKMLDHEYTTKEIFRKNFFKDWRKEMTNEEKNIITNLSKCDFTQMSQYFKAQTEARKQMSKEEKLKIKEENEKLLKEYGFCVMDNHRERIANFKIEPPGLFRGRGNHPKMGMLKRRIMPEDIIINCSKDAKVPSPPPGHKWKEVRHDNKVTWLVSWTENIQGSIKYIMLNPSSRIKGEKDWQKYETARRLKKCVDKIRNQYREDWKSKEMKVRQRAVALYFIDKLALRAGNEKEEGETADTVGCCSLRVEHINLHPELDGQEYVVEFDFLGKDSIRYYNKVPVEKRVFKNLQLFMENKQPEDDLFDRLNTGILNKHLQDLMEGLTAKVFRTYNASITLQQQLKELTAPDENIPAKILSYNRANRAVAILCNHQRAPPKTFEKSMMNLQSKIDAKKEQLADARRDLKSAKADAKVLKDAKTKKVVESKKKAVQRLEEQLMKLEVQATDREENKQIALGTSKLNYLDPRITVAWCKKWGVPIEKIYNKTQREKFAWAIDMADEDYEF
Source text: DNA topoisomerase I was purified from calf thymus gland as reported previously by B. D. Halligan et al., J. Biol. Chem., 260, 2475 (1985). Plasmid YEpG was also purified by the alkali lysis method followed by phenol deproteination and CsCl/ethidium isopycnic centrifugation as described by T. Mariatis et al., Molecular Cloning, A Laboratory Manual, Cold Spring Harbor Labs, NY (1982) at pages 149-185. The end-labeling of the plasmid was accomplished as previously described by L. F. Liu et al., J. Biol. Chem., 258, 15365 (1983). The cleavage assays were performed as previously reported by A. Y. Chen et al., Cancer Res., 53, 1332 (1993). Human topoisomerase was isolated as a recombinant fusion protein using a T7 expression system.
^b Topoisomerase I cleavage values are reported as REC, Relative
Effective Concentration, i.e. concentrations relative to Hoechst 33342,
whose value is arbitrarily assumed as 1, that are able to produce the sam
cleavage on the plasmid DNA in the presence of calf thymus topoisomerase
I. Cleavage is calculated from the intensity of the strongest Hoechst

mammalian tumor cells = assay: Cytotoxicity to tumor cells, general statement; assay type: cell-based; settings: cell line not specified
[4] = system: CPT-2000, a variant of A2780; assay: Cytotoxicity, camptothecin-resistant CPT-2000; assay type: cell-based; settings: Homo sapiens
Description: (§2) The cytotoxicity was determined using the as MTT-microtiter plate tetrazolinium cytotoxicity assay (MTA) following the procedures of F. Denizot et al., J. Immunol. Methods, 89, 271 (1986); J. Carmichael et al., Cancer Res., 47, 936 (1987) and T. J. Mosmann et al., Immunol. Methods, 65, 55 (1983). The human lymphoblast RPMI 8402 and its camptothecin-resistant variant cell line, CPT-K5 were provided by Dr. Toshiwo Andoh (Aichi Cancer Center Research Institute, Nagoya, Japan). See, for example, T. Andoh et al., Adv. Pharmacol., 29B, 93 (1994). The cytotoxicity assay was performed using 96-well microtiter plates. Cells were grown in suspension at 37° C. in 5% CO2 and maintained by regular passage in RPMI medium supplemented with 10% heat inactivated fetal bovine serum, L-glutamine (2 mM), penicillin (100 U/ml), and streptomycin (0.1 mg/ml). For determination of IC50, cells were exposed continuously with varying concentrations of drug concentrations and MTT assays were performed at the end of the fourth day.

[5] = system: human MDR1 (P-glycoprotein); assay: Substrate of human MDR1 (P-glycoprotein), from cytotoxicity in KB 3-1 and KB V-1 cells; assay type: cell-based; settings: concluded from KB 3-1 / KB V-1 IC50 values
Description: The drug sensitive human epidermoid carcinoma KB3-1 cell line (S. Aliyama et al., Somatic Cell Mol. Genet, 11, 117 (1985)) and its vinblastine-selected multidrug-resistant variant KBV-1 cells (D. W. Shen et al., Science, 32, 643 (1986)) were provided by Dr. Michael Gottesmann (National Cancer Institute, Bethesda, ML). These cells were grown as monolayer cultures at in 5% CO2 and maintained by regular passage in Dulbecco's minimal essential medium supplemented with 10% heat inactivated fetal bovine serum. KBV-1 cells were similarly maintained except they were grown in the presence of 1 μg/ml vinblastine.
The cytotoxic activity of Hoechst 33342 and 13 was also evaluated against KB 3-1 and KB V-1 cells. The primary difference between these cell lines is in the degree to which human MDR1 (P-glycoprotein) is expressed. […] Pharmacol., 245, 29B (1994).

[6] = system: human ovarian tumor cell line, A2780; assay: Cytotoxicity, ovarian tumor cell line A2780; assay type: cell-based
Description: as §2

[7] = system: KBV-1 cells (multidrug-resistant variant of KB3-1, overexpress MDR1); assay: MTT cytotoxicity assay, multidrug-resistant KBV-1; assay type: cell-based, human; settings: for IC50: Homo sapiens, KB-V1, 96 h, read-out: Cytotoxicity IC50, KBV-1
Description: as §1
(§3) These cells were grown as monolayer cultures at in 5% CO2 and maintained by regular passage in Dulbecco's minimal essential medium supplemented with 10% heat inactivated fetal bovine serum. KBV-1 cells were similarly maintained except they were grown in the presence of 1 μg/ml vinblastine.

fungi = assay: Antifungal activity
[8] = system: human epidermoid carcinoma KB3-1 cell line; assay: MTT cytotoxicity assay, KB3-1; assay type: cell-based; settings: KB 3-1, 96 h, 4 days continuous drug exposure
Description: as §1, §3

[9] = system: CPT-K5 cells (camptothecin-resistant variant of RPMI 8402); settings: as reported by A. Y. Chen et al., Cancer Res., 53, 1332 (1993); cited from earlier work
[10] = 4 days continuous drug exposure

Structure (SMILES): c1ccc2[nH]c(-c3ccc4[nH]c(-c5ccc6[nH]cnc6c5)nc4c3)nc2c1 [Compound 10, 2-[2'-(Benzimidazol-5"-yl)benzimidazol-5'-yl]benzimidazole]
- Cytotoxicity towards RPMI 8402 (in words) [1]: failed to exhibit significant cytotoxicity
- IC50 [1]: 14000 nM
- IC50 [2]: 28000 nM

Structure (SMILES): N#Cc1ccc2[nH]c(-c3ccc4[nH]c(-c5ccc6[nH]cnc6c5)nc4c3)nc2c1 [Compound 11, 5-Cyano-2-[2'-(benzimidazol-5"-yl)benzimidazol-5'-yl]benzimidazole]
- Cytotoxicity towards RPMI 8402 (in words) [1]: failed to exhibit significant cytotoxicity
- IC50 [1, 10]: > 25000 nM
- IC50 [2, 10]: > 25000 nM

Structure (SMILES): CCCc1ccc2nc(-c3ccc4nc(-c5ccc6nc[nH]c6c5)[nH]c4c3)[nH]c2c1 [Compound 12, 5-Propyl-2-[2'-(benzimidazol-5"-yl)benzimidazol-5'-yl]benzimidazole]
- IC50 [1, 10]: 7600 nM
- IC50 [2, 10]: 20000 nM
- Potency as topoisomerase I inhibitor (in words) [3]: much less active than either 10, 11, or 13 as an inhibitor of topoisomerase I
- Cytotoxicity to tumor cells (in words) (mammalian tumor cells): weak cytotoxicity

Structure (SMILES): c1ccc(-c2ccc3nc(-c4ccc5nc(-c6ccc7nc[nH]c7c6)[nH]c5c4)[nH]c3c2)cc1 [Compound 13, 5-Phenyl-2-[2'(benzimidazol-5"-yl)benzimidazol-5'-yl]benzimidazole]
- Cytotoxicity towards RPMI 8402 (in words) [1]: significant cytotoxicity
- IC50 [1, 10]: 90 nM
- Cytotoxicity against CPT-K5 cells (in words) [2]: effective against camptothecin-resistant CPT-K5 cells
- Relative resistance (ratio of IC50 values of resistant versus drug sensitive cell line) ([2]; CPT-K5 versus RPMI 8402, 5760 min): approximately 30 fold
- IC50 [2]: 580 nM
- IC50 [4]: 0.03 µg/mL (≈ 0.0703 µM)
- Potency as topoisomerase I inhibitor (in words) [3]: approximately one-half as potent as Hoechst 33342 as a topoisomerase I inhibitor
- Substrate for human MDR1 (in words) [5]: appears not to be a substrate for human MDR1
- IC50 [6]: 0.015 µg/mL (≈ 0.0352 µM)
- IC50 [7]: 350 nM
- Difference of cytotoxicity between KB 3-1 and KB V-1 cells (in words) ([7]; KB 3-1 versus KB V-1): little difference between the IC50 values

Structure (SMILES): c1ccc(-c2ccc3nc(-c4ccc5nc(-c6ccc7nc[nH]c7c6)[nH]c5c4)[nH]c3c2)nc1 [Compound 14, 5-(2-Pyridyl)-2-[2'-(benzimidazol-5"-yl)benzimidazol-5'-yl]benzimidazole]
- IC50 [1, 10]: 160 nM
- IC50 [2]: 5800 nM
- Antifungal activity (in words) (fungi): exhibits antifungal activity
- IC50 [8]: 50 nM
- IC50 [7, 10]: 90 nM

Structure (SMILES): c1cncc(-c2ccc3nc(-c4ccc5nc(-c6ccc7nc[nH]c7c6)[nH]c5c4)[nH]c3c2)c1 [Compound 15, 5-(3-Pyridyl)-2-[2'-(benzimidazol-5"-yl)benzimidazol-5'-yl]benzimidazole]
- IC50 [1, 10]: 35 nM
- IC50 [2]: 2500 nM
- Potency as topoisomerase I inhibitor (in words) [3]: somewhat more active than the 2-pyridyl derivative, 14, as topoisomerase I inhibitors
- IC50 [8]: 20 nM
- Cytotoxicity to tumor cells (in words) (mammalian tumor cells): somewhat more active than the 2-pyridyl derivative, 14, as topoisomerase I inhibitors as well as cytotoxic agents
- IC50 [7, 10]: 20 nM

Structure (SMILES): c1cc(-c2ccc3nc(-c4ccc5nc(-c6ccc7nc[nH]c7c6)[nH]c5c4)[nH]c3c2)ccn1 [Compound 16, 5-(4-Pyridyl)-2-[2'-(benzimidazol-5"-yl)benzimidazol-5'-yl]benzimidazole]
- IC50 [1, 10]: 35 nM
- IC50 [2]: 2500 nM
- Potency as topoisomerase I inhibitor (in words) [3]: somewhat more active than the 2-pyridyl derivative, 14, as topoisomerase I inhibitors
- IC50 [8]: 20 nM
- Cytotoxicity to tumor cells (in words) (mammalian tumor cells): somewhat more active than the 2-pyridyl derivative, 14, as topoisomerase I inhibitors as well as cytotoxic agents
- IC50 [7, 10]: 10 nM

Structure (SMILES): N#Cc1ccc2nc(-c3ccc4nc[nH]c4c3)[nH]c2c1 [Compound 19, 5-Cyano-2-(benzimidazol-5'-yl)benzimidazole]
- IC50 [1, 10]: > 25000 nM

Structure (SMILES): Brc1ccc2nc(-c3ccc4nc(-c5ccc6nc[nH]c6c5)[nH]c4c3)[nH]c2c1 [JSKIV-37, 5-Bromo-2-[2'-(benzimidazol-5"-yl)benzimidazol-5'-yl]-benzimidazole]
- IC50 [2]: 1400 nM

Structure (SMILES): Clc1ccc(-c2ccc3nc(-c4ccc5nc(-c6ccc7nc[nH]c7c6)[nH]c5c4)[nH]c3c2)cc1 [JSKIV-47, 5-(p-Chlorophenyl)-2-[2'-(benzimidazol-5"-yl)benzimidazol-5'-yl]-benzimidazole]
- IC50 [1, 10]: 90 nM
- IC50 [2, 10]: 200 nM

Structure (SMILES): Clc1ccc2nc(-c3ccc4nc(-c5ccc6nc[nH]c6c5)[nH]c4c3)[nH]c2c1 [JSKIV-68, 5-Chloro-2-[2'-(benzimidazol-5"-yl)benzimidazol-5'-yl]-benzimidazole]
- IC50 [1, 10]: 1040 nM
- IC50 [2]: 650 nM

Structure (SMILES): CC[C@@]1(O)C(=O)OCc2c1cc1n(c2=O)Cc2cc3ccccc3nc2-1 [camptothecin]
- Relative resistance of camptothecin (ratio of IC50 values of resistant versus drug sensitive cell line) [9]: 2,500 fold

From patent US5767142A, “Trisbenzimidazoles useful as topoisomerase I inhibitors” (Rutgers, The State University of New Jersey, priority 1996, dated 1998)
